Each structure is given as a SMILES string.

The text below walks through data of US12391737B2, “Soluble NPY2 receptor agonists” (Boehringer Ingelheim International GmbH, priority 2020, dated 2025).

This data set is described as follows: Solubility determination. As to conditions: for Sol6: pH 6; for Sol7: pH 7. Here is the method:
Peptides (as TFA salts) were weighed out in a filter unit (Mini-UniPrep Syringeless Filter 0.45 μm, Whatman), and 0.1 M sodium diphosphate buffer at pH 6.4 or 7.0 was added to achieve 10 mg/ml final concentration. The peptide was dissolved by shaking the filter unit horizontally at 600 rpm for 2 hours at room temperature. The sample was filtered, to remove any insoluble particles and diluted to 1 mg/ml in 50% acetonitrile. The control was prepared by weighing out the corresponding peptide and dissolving it in 50% acetonitrile to final concentration of 1 mg/ml. Both the control and sample were analysed with reversed phase chromatography. The area under the peak of the sample was compared to the control and the solubility was calculated based on that ratio.
The pH was measured and recorded for each sample.
System: UltiMate 3000 UPLC, ThermoFisher
Mobile phase A: 5% acetonitrile, 95% water, 0.03% trifluoracetic acid.
Mobile phase B: 95% acetonitrile, 5% water, 0.03% trifluoracetic acid.
Gradient: 0-100% mobile phase B (2 mins.)
Column temperature: 50° C.

Take `CC(C)CC(=O)N[C@@H](C)C(=O)N1CCC[C@H]1C(=O)N[C@@H](C)C(=O)N[C@@H](CCCCNC(=O)CCCCCNC(=O)CC[C@H](NC(=O)CCCCCCCCCCCCCCCCC(=O)O)C(=O)O)C(=O)N1CCC[C@H]1C(=O)N[C@@H](CCC(=O)O)C(=O)N[C@@H](CCC(=O)O)C(=O)N[C@@H](CC(=O)O)C(=O)N[C@@H](C)C(=O)N[C@@H](CO)C(=O)N1CCC[C@H]1C(=O)N[C@@H](CCC(=O)O)C(=O)N[C@@H](CCC(=O)O)C(=O)N[C@@H](CC(C)C)C(=O)N[C@@H](CCC(N)=O)C(=O)N[C@@H](CCCNC(=N)N)C(=O)N[C@@H](Cc1ccc(O)cc1)C(=O)N[C@@H](Cc1ccc(O)cc1)C(=O)N[C@H](C(=O)N[C@@H](CO)C(=O)N[C@@H](CC(C)C)C(=O)N[C@@H](CCCNC(=N)N)C(=O)N[C@@H](Cc1c[nH]cn1)C(=O)N[C@@H](Cc1ccc(O)cc1)C(=O)N[C@@H](Cc1ccc(O)cc1)C(=O)N[C@@H](CCC(N)=O)C(=O)N[C@@H](Cc1c[nH]c2ccccc12)C(=O)N[C@@H](CC(C)C)C(=O)N[C@H](C(=O)N[C@@H](CCCNC(=N)N)C(=O)N[C@@H](CCC(N)=O)C(=O)N[C@@H](CCCNC(=N)N)C(=O)N[C@@H](Cc1ccc(O)cc1)C(N)=O)[C@@H](C)O)C(C)C` [Compound 78, N{alpha-4}-(3-methylbutanoyl)-N{epsilon-7}-(6-[(4S)-4-carboxy-4-(17-carboxyheptadecanamido)butanamido]hexanoyl)-[4A,6A,7K,9E,18Q,22V,28Y,29Q,30W,31L]-hPYY(4-36)]: the “Sol6” value turned out to be 8.1 mg/mL and the “Sol7” value came out at 7.6 mg/mL.

Turning to `CC(C)CC(=O)N[C@@H](C)C(=O)N1CCC[C@H]1C(=O)N[C@@H](C)C(=O)N[C@@H](CCCCNC(=O)CCCCCNC(=O)CC[C@H](NC(=O)CCCCCCCCCCCCCCCCC(=O)O)C(=O)O)C(=O)N1CCC[C@H]1C(=O)N[C@@H](CCC(=O)O)C(=O)N[C@@H](C)C(=O)N[C@@H](C)C(=O)N[C@@H](C)C(=O)N[C@@H](CCC(=O)O)C(=O)N1CCC[C@H]1C(=O)N[C@@H](CCC(=O)O)C(=O)N[C@@H](CCC(=O)O)C(=O)N[C@@H](CC(C)C)C(=O)N[C@@H](CCC(N)=O)C(=O)N[C@@H](CCCNC(=N)N)C(=O)N[C@@H](Cc1ccc(O)cc1)C(=O)N[C@@H](Cc1ccc(O)cc1)C(=O)N[C@H](C(=O)N[C@@H](C)C(=O)N[C@@H](CC(C)C)C(=O)N[C@@H](CCCNC(=N)N)C(=O)N[C@@H](Cc1c[nH]cn1)C(=O)N[C@@H](Cc1ccc(O)cc1)C(=O)N[C@@H](Cc1ccc(O)cc1)C(=O)N[C@@H](CC(N)=O)C(=O)N[C@@H](Cc1c[nH]c2ccccc12)C(=O)N[C@@H](CC(C)C)C(=O)N[C@H](C(=O)N[C@@H](CCCNC(=N)N)C(=O)N[C@@H](CCC(N)=O)C(=O)N[C@@H](CCCNC(=N)N)C(=O)N[C@@H](Cc1ccc(O)cc1)C(N)=O)[C@@H](C)O)C(C)C` [Compound 10, N{alpha-4}-(3-methylbutanoyl)-N{epsilon-7}-(6-[(4S)-4-carboxy-4-(17-carboxyheptadecanamido)butanamido]hexanoyl)[4A,6A,7K,9E,10A,11A,13E,18Q,22V,23A,28Y,30W,31L]-hPYY(4-36)], the “Sol6” value stood at 0.0 mg/mL and the “Sol7” value was determined as 0.0 mg/mL.

For `CC(C)CC(=O)N[C@@H](C)C(=O)N1CCC[C@H]1C(=O)N[C@@H](CCC(=O)O)C(=O)N[C@@H](CCCCNC(=O)CCCCCNC(=O)CC[C@H](NC(=O)CCCCCCCCCCCCCCCCC(=O)O)C(=O)O)C(=O)N1CCC[C@H]1C(=O)N[C@@H](CCC(=O)O)C(=O)N[C@@H](C)C(=O)N[C@@H](CC(=O)O)C(=O)N[C@@H](C)C(=O)N[C@@H](CCC(=O)O)C(=O)N1CCC[C@H]1C(=O)N[C@@H](CCC(=O)O)C(=O)N[C@@H](CCC(=O)O)C(=O)N[C@@H](CC(C)C)C(=O)N[C@@H](CCC(N)=O)C(=O)N[C@@H](CCCNC(=N)N)C(=O)N[C@@H](Cc1ccc(O)cc1)C(=O)N[C@@H](Cc1ccc(O)cc1)C(=O)N[C@H](C(=O)N[C@@H](C)C(=O)N[C@@H](CC(C)C)C(=O)N[C@@H](CCCNC(=N)N)C(=O)N[C@@H](Cc1c[nH]cn1)C(=O)N[C@@H](Cc1ccc(O)cc1)C(=O)N[C@@H](Cc1ccc(O)cc1)C(=O)N[C@@H](CC(N)=O)C(=O)N[C@@H](Cc1c[nH]c2ccccc12)C(=O)N[C@@H](CC(C)C)C(=O)N[C@H](C(=O)N[C@@H](CCCNC(=N)N)C(=O)N[C@@H](CCC(N)=O)C(=O)N[C@@H](CCCNC(=N)N)C(=O)N[C@@H](Cc1ccc(O)cc1)C(N)=O)[C@@H](C)O)C(C)C` [Compound 6, N{alpha-4}-(3-methylbutanoyl)-N{epsilon-7}-(6-[(4S)-4-carboxy-4-(17-carboxyheptadecanamido)butanamido]hexanoyl)[4A,7K,9E,10A,13E,18Q,22V,23A,28Y,30W,31L]-hPYY(4-36)], the “Sol6” value amounted to 9.6 mg/mL and the “Sol7” value came out at 10.0 mg/mL.

Turning to `CC(C)CC(=O)N[C@@H](C)C(=O)N1CCC[C@H]1C(=O)N[C@@H](C)C(=O)N[C@@H](CCCCNC(=O)CCCCCNC(=O)CC[C@H](NC(=O)CCCCCCCCCCCCCCCCC(=O)O)C(=O)O)C(=O)N1CCC[C@H]1C(=O)N1CCC[C@H]1C(=O)N[C@@H](CCC(=O)O)C(=O)N[C@@H](CC(=O)O)C(=O)N[C@@H](C)C(=O)N[C@@H](CCC(=O)O)C(=O)N1CCC[C@H]1C(=O)N[C@@H](CCC(=O)O)C(=O)N[C@@H](CCC(=O)O)C(=O)N[C@@H](CC(C)C)C(=O)N[C@@H](CCC(N)=O)C(=O)N[C@@H](CCCNC(=N)N)C(=O)N[C@@H](Cc1ccc(O)cc1)C(=O)N[C@@H](Cc1ccc(O)cc1)C(=O)N[C@H](C(=O)N[C@@H](CO)C(=O)N[C@@H](CC(C)C)C(=O)N[C@@H](CCCNC(=N)N)C(=O)N[C@@H](Cc1c[nH]cn1)C(=O)N[C@@H](Cc1ccc(O)cc1)C(=O)N[C@@H](Cc1ccc(O)cc1)C(=O)N[C@@H](CC(N)=O)C(=O)N[C@@H](Cc1c[nH]c2ccccc12)C(=O)N[C@@H](CC(C)C)C(=O)N[C@H](C(=O)N[C@@H](CCCNC(=N)N)C(=O)N[C@@H](CCC(N)=O)C(=O)N[C@@H](CCCNC(=N)N)C(=O)N[C@@H](Cc1ccc(O)cc1)C(N)=O)[C@@H](C)O)C(C)C` [Compound 165, N{alpha-4}-(3-methylbutanoyl)-N{epsilon-7}-(6-[(4S)-4-carboxy-4-(17-carboxyheptadecanamido)butanamido]hexanoyl)-[4A,6A,7K,9P,13E,18Q,22V,28Y,30W,31L]-hPYY(4-36)], the “Sol6” value was 8.8 mg/mL and the “Sol7” value stood at 9.1 mg/mL.

Turning to `CC(C)CC(=O)N[C@@H](C)C(=O)N1CCC[C@H]1C(=O)N[C@@H](CCC(=O)O)C(=O)N[C@@H](CCCCNC(=O)CCCCCNC(=O)CC[C@H](NC(=O)CCCCCCCCCCCCCCCCC(=O)O)C(=O)O)C(=O)N1CCC[C@H]1C(=O)N[C@@H](CCC(=O)O)C(=O)N[C@@H](CCC(=O)O)C(=O)N[C@@H](CC(=O)O)C(=O)N[C@@H](C)C(=O)N[C@H](C(=O)N1CCC[C@H]1C(=O)N[C@@H](CCC(=O)O)C(=O)N[C@@H](CCC(=O)O)C(=O)N[C@@H](CC(C)C)C(=O)N[C@@H](CCC(N)=O)C(=O)N[C@@H](CCCNC(=N)N)C(=O)N[C@@H](Cc1ccc(O)cc1)C(=O)N[C@@H](CCC(N)=O)C(=O)N[C@H](C(=O)N[C@@H](CO)C(=O)N[C@@H](CC(C)C)C(=O)N[C@@H](CCCNC(=N)N)C(=O)N[C@@H](Cc1c[nH]cn1)C(=O)N[C@@H](Cc1ccc(O)cc1)C(=O)N[C@@H](Cc1ccc(O)cc1)C(=O)N[C@@H](CC(N)=O)C(=O)N[C@@H](Cc1c[nH]c2ccccc12)C(=O)N[C@@H](CC(C)C)C(=O)N[C@H](C(=O)N[C@@H](CCCNC(=N)N)C(=O)N[C@@H](CCC(N)=O)C(=O)N[C@@H](CCCNC(=N)N)C(=O)N[C@@H](Cc1ccc(O)cc1)C(N)=O)[C@@H](C)O)C(C)C)[C@@H](C)O` [Compound 115, N{alpha-4}-(3-methylbutanoyl)-N{epsilon-7}-(6-[(4S)-4-carboxy-4-(17-carboxyheptadecanamido)butanamido]hexanoyl)-[4A,7K,9E,13T,18Q,21Q,22V,28Y,30W,31L]-hPYY(4-36)], the “Sol6” value was found to be 9.0 mg/mL and the “Sol7” value was 8.5 mg/mL.

For the compound `CC[C@H](C)[C@H](NC(=O)[C@H](CCC(=O)O)NC(=O)[C@H](CCC(=O)O)NC(=O)[C@@H]1CCCN1C(=O)[C@H](CCC(=O)O)NC(=O)[C@H](C)NC(=O)[C@H](C)NC(=O)[C@H](C)NC(=O)[C@H](CCC(=O)O)NC(=O)[C@@H]1CCCN1C(=O)[C@H](CCCCNC(=O)CCCCCNC(=O)CC[C@H](NC(=O)CCCCCCCCCCCCCCCCC(=O)O)C(=O)O)NC(=O)[C@H](C)NC(=O)[C@@H]1CCCN1C(=O)[C@H](C)NC(=O)CC(C)C)C(=O)N[C@@H](CCC(N)=O)C(=O)N[C@@H](CCCNC(=N)N)C(=O)N[C@@H](Cc1ccc(O)cc1)C(=O)N[C@@H](Cc1ccc(O)cc1)C(=O)N[C@H](C(=O)N[C@@H](C)C(=O)N[C@@H](CC(C)C)C(=O)N[C@@H](CCCNC(=N)N)C(=O)N[C@@H](Cc1c[nH]cn1)C(=O)N[C@@H](Cc1ccc(O)cc1)C(=O)N[C@@H](Cc1ccc(O)cc1)C(=O)N[C@@H](CC(N)=O)C(=O)N[C@@H](Cc1c[nH]c2ccccc12)C(=O)N[C@@H](CC(C)C)C(=O)N[C@H](C(=O)N[C@@H](CCCNC(=N)N)C(=O)N[C@@H](CCC(N)=O)C(=O)N[C@@H](CCCNC(=N)N)C(=O)N[C@@H](Cc1ccc(O)cc1)C(N)=O)[C@@H](C)O)C(C)C` [Compound 116, N{alpha-4}-(3-methylbutanoyl)-N{epsilon-7}-(6-[(4S)-4-carboxy-4-(17-carboxyheptadecanamido)butanamido]hexanoyl)-[4A,6A,7K,9E,10A,11A,13E,17I,18Q,22V,23A,28Y,30W,31L]-hPYY(4-36)], the “Sol6” value turned out to be 0.0 mg/mL and the “Sol7” value stood at 0.0 mg/mL.
